# Experimental data published in publication PMC8868518, “Exploring Titanium(IV) Complexes as Potential Antimicrobial Compounds” (Antibiotics, 2022).
# Where a name gives a salt, the structure may show the parent alone.
# What was measured:
# [1] = tested on: C. neoformans (ATCC 208821); experiment: CO-ADD antifungal assay, growth inhibition (resazurin, OD600-570); assay type: cell-based, Cryptococcus neoformans; conditions: up to 32 μg/mL; for MIC C. neoformans / MIC: predicted or measured MIC, ≥75% growth inhibition, 36 h; for MIC / Dmax: Cryptococcus neoformans, ATCC208821; for Dmax: read-out: Dmax C. neoformans, maximum % inhibition
# [2] = tested on: P. aeruginosa (ATCC 27853); experiment: CO-ADD antibacterial assay, growth inhibition (OD600); assay type: cell-based, Pseudomonas aeruginosa; conditions: up to 32 μg/mL; for MIC P. aeruginosa / MIC: predicted or measured MIC, ≥75% growth inhibition; for MIC / Dmax: Pseudomonas aeruginosa, ATCC27853; for Dmax: read-out: Dmax P. aeruginosa, maximum % inhibition
# C. albicans (ATCC 90028) = experiment: CO-ADD antifungal assay, growth inhibition (OD630); assay type: cell-based, Candida albicans; conditions: for MIC C. albicans / MIC: predicted or measured MIC, ≥75% growth inhibition, 36 h; for MIC C. albicans / Dmax C. albicans, maximum % inhibition / MIC / Dmax: up to 32 μg/mL; for MIC / Dmax: Candida albicans, ATCC90028; for Dmax: read-out: Dmax C. albicans, maximum % inhibition
# [3] = tested on: A. baumannii (ATCC 19606); experiment: CO-ADD antibacterial assay, growth inhibition (OD600); assay type: cell-based, Acinetobacter baumannii; conditions: up to 32 μg/mL; for MIC A. baumannii / MIC: predicted or measured MIC, ≥75% growth inhibition; for MIC / Dmax: Acinetobacter baumannii, ATCC19606; for Dmax: read-out: Dmax A. baumannii, maximum % inhibition
# [4] = tested on: K. pneumoniae (ATCC 700603); experiment: as above; assay type: cell-based, Klebsiella pneumoniae; conditions: up to 32 μg/mL; for MIC K. pneumoniae / MIC: predicted or measured MIC, ≥75% growth inhibition; for MIC / Dmax: Klebsiella pneumoniae, ATCC700603; for Dmax: read-out: Dmax K. pneumoniae, maximum % inhibition
# [5] = tested on: S. aureus MRSA (ATCC 43300); experiment: as above; assay type: cell-based, Staphylococcus aureus; conditions: for MIC S. aureus (MRSA) / MIC: predicted or measured MIC, lowest concentration with ≥75% growth inhibition, 0.25-32 μg/mL, 18 h; for Dmax S. aureus (MRSA), maximum % inhibition / Dmax: up to 32 μg/mL; for MIC / Dmax: Staphylococcus aureus; for Dmax: read-out: Dmax S. aureus (MRSA), maximum % inhibition
Molecule,MIC C. neoformans [1] [µg/mL],MIC P. aeruginosa [2] [µg/mL],"Dmax P. aeruginosa, maximum % inhibition [2] [%]",MIC C. albicans (C. albicans (ATCC 90028)) [µg/mL],"Dmax C. albicans, maximum % inhibition (C. albicans (ATCC 90028)) [%]",MIC A. baumannii [3] [µg/mL],"Dmax A. baumannii, maximum % inhibition [3] [%]",MIC K. pneumoniae [4] [µg/mL],"Dmax K. pneumoniae, maximum % inhibition [4] [%]",MIC S. aureus (MRSA) [5] [µg/mL],"Dmax S. aureus (MRSA), maximum % inhibition [5] [%]",MIC [1] [µg/mL],Dmax [1] [%],MIC [2] [µg/mL],Dmax [2] [%],MIC (C. albicans (ATCC 90028)) [µg/mL],Dmax (C. albicans (ATCC 90028)) [%],MIC [3] [µg/mL],Dmax [3] [%],MIC [4] [µg/mL],other results
"[K+].[K+].c1ccc2cc3c(cc2c1)[O][Ti-2]12([O]3)([O]c3cc4ccccc4cc3[O]1)[O]c1cc3ccccc3cc1[O]2 [Compound 8, K2[Ti(Naphthalene-2,3-diolate)3]]",>32,>32,13.43,>32,57.57,>32,24.76,>32,22.94,>32,52.5,–,–,–,–,–,–,–,–,–,"Dmax C. neoformans, maximum % inhibition [1]: −1.45%"
"O=C(O)CC(O)(CC(=O)O)C(=O)O [Compound 1, Trisodium citrate, reference compound]",–,–,–,–,–,–,–,–,–,–,–,> 32,-8.24,> 32,10.3,> 32,0.28,> 32,18,> 32,Dmax [4]: 14.2%; MIC [5]: > 32 µg/mL; Dmax [5]: 10.6%
"O=C([O-])C(=O)O.O=C([O-])C(=O)O.[K+].[K+].[O]=[Ti] [Compound 14, Potassium dioxalatoxotitanate(IV) dihydrate]",>32,>32,7.5,32,77.3,>32,8.2,>32,17.2,>32,40.5,–,–,–,–,–,–,–,–,–,"C. albicans MIC value in units of molarity (C. albicans (ATCC 90028); converted from 32 μg/mL (Table S1)): 90.4 µM; Dmax C. albicans, maximum % inhibition (C. albicans (ATCC 90028); listed as K2[TiO(Oxalate)2]): greater than 75%"
[Cu(Deferasirox)(H2O)]2 [Compound 15],>32,>32,19.2,>32,34.0,>32,7.8,>32,7.7,>32,26.9,–,–,–,–,–,–,–,–,–,–
"Oc1cc2ccccc2cc1O [Compound 2, 2,3-dihydroxynaphthalene, reference compound]",–,–,–,–,–,–,–,–,–,–,–,> 32,-9.97,> 32,14.6,> 32,16.3,> 32,31.3,> 32,Dmax [4]: 26.8%; MIC [5]: > 32 µg/mL; Dmax [5]: 12.6%
"O=C(O)c1ccc(-n2nc3nc2-c2ccccc2[O][Ti]2([O]c4ccccc4-3)[O]c3ccccc3-c3nc(n(-c4ccc(C(=O)O)cc4)n3)-c3ccccc3[O]2)cc1 [Compound 10, titanium(IV) bis(deferasirox)]",>32,>32,7.57,>32,5.74,>32,16.28,>32,34.61,16,98.2,–,–,–,–,–,–,–,–,–,"Dmax C. neoformans, maximum % inhibition [1]: −5.72%; MIC against MRSA in units of molarity ([5]; converted from 16 μg/mL): 20.2 µM; Dmax S. aureus (MRSA), maximum % inhibition ([5]; listed as Ti(Deferasirox)2): ~100%"
"O=C(O)c1ccccc1O [Compound 6, salicylic acid, reference compound]",–,–,–,–,–,–,–,–,–,–,–,> 32,-10.7,> 32,9.76,> 32,30.9,> 32,17.9,> 32,Dmax [4]: 17.1%; MIC [5]: > 32 µg/mL; Dmax [5]: 13.9%
